# Tests used:
# p53 [1] = assay: Immunoblot of doxorubicin-treated primary neonatal rat cardiomyocytes; format: cell-based
# Excerpt: FIG. 4. Ischemin functions a cellular protective agent against myocardial ischemic stress. (A) TUNEL assay showing ischemin inhibition of doxorubicin-induced apoptosis in rat neonatal cardiomyocytes. (B) Evaluation of ischemin effects in U20S cells and cardiomyocytes. The immunoblots show down-regulation of doxorubicin-induced activated p53 in both cell types in the presence of ischemin, while levels of H2XS139p remained the same. (C) Inhibition of doxorubicin-induced caspase 3/7 activation in cardiomyocytes by ischemin.
# The latter argues that ATM is active in presence of ischemin, which is consistent with our analysis using Western blots (FIG. 2B).
# CBP BRD = CBP BRD (Homo sapiens, UniProt Q92793); assay: Bromodomain binding affinity (tryptophan fluorescence binding assay); conditions: over PCAF, BRD41, BAZ1B and BAZ2B
# Procedure: Monitoring change of intrinsic tryptophan fluorescence of a protein induced by ligand binding can be used to determine ligand binding affinity (KD). This assay was used to assess ligand binding to the CBP BRD and ischemin binding to the BRDs from other transcription proteins as follows. The chemical ligands were prepared at 500-850 μM in the PBS buffer. Their serial dilutions by a factor of 1.5 in a 384-wells black plate were carried out using a Tecan EVO200 liquid handler down to a concentration of 0.5 nM. Protein was added to the compounds to a final concentration in each well of 5 μM. Tryptophan fluorescence of the protein was measured (with excitation set at 280 nm, emission at 350 nm) on a Tecan Safire2 reader. Inner filter correction was introduced to take into account the possible intrinsic fluorescence of the compound. […] KD was calculated based on the curve fitting.
# cardiomyocytes = assay: TUNEL apoptosis assay in primary neonatal rat cardiomyocytes; format: cell-based
# Procedure: The ability of ischemin to inhibit apoptosis in cardiomyocytes under DNA damage stress was evaluated. Primary neonatal rat cardiomyocytes were isolated and maintained in culture, then, treated with doxorubicin for 24 hours to induce DNA damage in the presence or absence of ischemin. The DNA damage induced by apoptosis was analyzed by the TUNEL (terminal deoxynucleotidyl transferase dUTP nick and end labeling) assay, in which a terminal deoxynucleotidyl transferase was used to identify 3′-OH of DNA generated by DNA fragmentation resulting from apoptosis, and then labels it with biotinylated dUTP. The latter was then detected with avidin-conjugated FITC for specific staining. Neonatal rat ventricular myocytes (NRVMs) were isolated by enzymatic dissociation of cardiac ventricle from 1-to-2-day-old Sprague-Dawley pups using the Worthington neonatal cardiomyocyte isolation system (Worthington). Briefly, the pups were anesthetized and their hearts were excised. The ventricular tissues were minced in ice cold HBSS and then digested with trypsin overnight at 4° C. followed by collagenase treatment for 45 min at 37° C. […] After treatment with compounds overnight and then doxorubicin for 24 hours, the intensities of luminecnce were read. […]
# p53 [2] = assay: Western blot of doxorubicin-treated U20S cells; format: cell-based
# Procedure: U20S cells were harvested cells and lysed in lysis buffer (20 mM Tris (pH 8.0), 150 mM NaCl, 1 mM EGTA, 1% Triton X-100, and 50 mM NaF) containing protease inhibitor cocktail (Sigma). The cells were sonicated and spun down at 14,000 rpm for 30 min at 4° C. After protein estimation, 30-50 micrograms of lysates were subjected to SDS-PAGE, transferred onto nitrocellulose membranes, blocked with 5% milk/PBS and blotted with a primary antibody. Horse radish peroxidase-labeled secondary antibodies (goat anti-Mouse or anti-Rabbit) were added for 60 min at room temperature, and the blots were washed with TBS (20 mM Tris, 150 mM Nacl, and 0.05% tween −20) and subjected to autoradiography after development of reaction by ECL (GE health care).
# The biochemical effects of ischemin on p53 stability and function as transcription factor was examined. U20S cells were incubated in the presence of doxorubicin with or without ischemin at concentration of 50 or 100 μM for 24 hours. Subsequently, cellular proteins were subjected to western blot analysis (as described above).
# As a transcription factor, p53 ability to activate gene expression is also dependent upon chromatin modifications. Since CBP acetylates both histones and p53, the possible changes of epigenetic marks on p53 and global histones in presence of ischemin was evaluated.
# caspase 3/7 = assay: Caspase 3/7 assay in cardiomyocytes; format: cell-based, rat; conditions: doxorubicin-induced
# Procedure: Neonatal rat ventricular myocytes (NRVMs) were isolated by enzymatic dissociation of cardiac ventricle from 1-to-2-day-old Sprague-Dawley pups using the Worthington neonatal cardiomyocyte isolation system (Worthington). Briefly, the pups were anesthetized and their hearts were excised. The ventricular tissues were minced in ice cold HBSS and then digested with trypsin overnight at 4° C. followed by collagenase treatment for 45 min at 37° C. Cells were collected by centrifugation at 800 rpm for 5 min and subsequently underwent two rounds of preplating on culture dishes to minimize nonmyocyte contamination. The enriched cardiomyocytes were cultured in DMEM/F12 nutrient mixture (Invitrogen) with 10% horse serum and 5% fetal calf serum (Invitrogen). After 48 hours, the medium was changed to DMEM/F12 containing 1% insulin, transferrin, and selenium media supplement (ITS; Invitrogen) and 0.1% BSA.
# Caspase 3/7 and TUNEL assays were performed to assess inhibition of apoptosis by ischemin. Caspase assay and TUNEL assays were performed using Caspase-Glo 3/7 and DeadEnd kits from Promega. Caspase assay was performed on live cardiomyocytes in 96 wells plate on three different days. Similarly, TUNEL assay was performed in triplicate on three different days. […] After treatment with compounds overnight and then doxorubicin for 24 hours, the intensities of luminecnce were read. […]
# [3] = ischemin 50 or 100 μM, 24 hours, U20S cells
# [4] = nuclear extracts from U20S cells
# Chain of CBP BRD (Q92793 1085-1192 limits assumed): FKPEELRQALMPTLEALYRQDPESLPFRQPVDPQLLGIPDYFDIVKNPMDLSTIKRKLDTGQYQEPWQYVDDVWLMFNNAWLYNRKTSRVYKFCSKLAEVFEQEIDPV
smiles,measurement,setting,value
"Cc1cc(/N=N/c2cc(S(=O)(=O)O)c(C)cc2C)c(N)cc1O [Ischemin/MS120, 5-(2-amino-4-hydroxy-5-methylphenylazo)-2,4-dimethylbenzenesulfonic acid]",Doxorubicin induced p53 activation,p53 [1],able to inhibit
same,H2AX phosphorylation at Ser139,p53 [1],did not alter
same,Selectivity for the CBP BRD over other human BRDs,CBP BRD,up to five-fold selectivity
same,Toxicity in cardiomyocytes,cardiomyocytes; ischemin alone,no toxicity
same,Inhibition of doxorubicin-induced apoptosis (TUNEL),"cardiomyocytes; neonatal rat cardiomyocytes, doxorubicin 24 hours",effectively inhibit
same,Level or functional phosphorylation state of ATM and CHK1,"p53 [2]; U20S cells, doxorubicin",did not affect
same,"Expression of p53 target genes p21, PUMA and 14-3-3s induced by doxorubicin",p53 [2]; [3],significantly decreased
same,"Levels of p53 protein, p53S15p and p53K382ac induced by doxorubicin",p53 [2]; [3],marked reduction
same,H3 acetylation at Lys9,p53 [2]; [4],decrease
same,Histone H3 phosphorylation at Ser10,p53 [2]; [4],increase
same,Caspase 3/7 activity,caspase 3/7,inhibiting caspase 3/7 activity in a dose-dependent manner

# — US20140066410A1, “INHIBITORS OF BROMODOMAINS AS MODULATORS OF GENE EXPRESSION” (ICAHN SCHOOL OF MEDICINE AT MOUNT SINAI, priority 2011, published 2014)
